The source of these data is patent publication US10981926B2 (Janssen Pharmaceutica NV, priority 2016, dated 2021).

Assay [1] has as its target T1, wild-type Androgen Receptor (AR-wt) (Homo sapiens (Human), UniProt P10275). In words: LNCaP-AR-wt ANT reporter assay (antagonist mode). The format is cell-based. Conditions: for IC50: read-out: LNCaP-AR-wt ANT pIC50 (converted); for Emax: read-out: LNCaP-AR-wt ANT MAX % Inh. A general note: In a reporter assay the amount or activity of a reporter protein is the signal.

Assay [2] addresses T1, wild-type Androgen Receptor (AR-wt). As to the kind of experiment: LNCaP-AR-wt AG reporter assay (agonist mode). Conditions: for EC50 / LNCaP-AR-wt AG pEC50: pEC50 = −Log10(EC50 in Molar); for EC50: read-out: LNCaP-AR-wt AG pEC50 (converted); for Emax: read-out: LNCaP-AR-wt AG MAX % Stim. The assay is classed as cell-based.
The target in assay [3] is T2, F876L mutant Androgen Receptor (AR-F876L) (Homo sapiens (Human), UniProt P10275, F877L). In words: LNCaP-AR-F876L ANT reporter assay (antagonist mode). The assay is classed as cell-based. Conditions: for IC50: pIC50 = −Log10(IC50 in Molar), read-out: LNCaP-AR-F876L ANT pIC50 (converted); for Emax: read-out: LNCaP-AR-F876L ANT MAX % Inh.
T2 sequence (P10275 whole entry F877L): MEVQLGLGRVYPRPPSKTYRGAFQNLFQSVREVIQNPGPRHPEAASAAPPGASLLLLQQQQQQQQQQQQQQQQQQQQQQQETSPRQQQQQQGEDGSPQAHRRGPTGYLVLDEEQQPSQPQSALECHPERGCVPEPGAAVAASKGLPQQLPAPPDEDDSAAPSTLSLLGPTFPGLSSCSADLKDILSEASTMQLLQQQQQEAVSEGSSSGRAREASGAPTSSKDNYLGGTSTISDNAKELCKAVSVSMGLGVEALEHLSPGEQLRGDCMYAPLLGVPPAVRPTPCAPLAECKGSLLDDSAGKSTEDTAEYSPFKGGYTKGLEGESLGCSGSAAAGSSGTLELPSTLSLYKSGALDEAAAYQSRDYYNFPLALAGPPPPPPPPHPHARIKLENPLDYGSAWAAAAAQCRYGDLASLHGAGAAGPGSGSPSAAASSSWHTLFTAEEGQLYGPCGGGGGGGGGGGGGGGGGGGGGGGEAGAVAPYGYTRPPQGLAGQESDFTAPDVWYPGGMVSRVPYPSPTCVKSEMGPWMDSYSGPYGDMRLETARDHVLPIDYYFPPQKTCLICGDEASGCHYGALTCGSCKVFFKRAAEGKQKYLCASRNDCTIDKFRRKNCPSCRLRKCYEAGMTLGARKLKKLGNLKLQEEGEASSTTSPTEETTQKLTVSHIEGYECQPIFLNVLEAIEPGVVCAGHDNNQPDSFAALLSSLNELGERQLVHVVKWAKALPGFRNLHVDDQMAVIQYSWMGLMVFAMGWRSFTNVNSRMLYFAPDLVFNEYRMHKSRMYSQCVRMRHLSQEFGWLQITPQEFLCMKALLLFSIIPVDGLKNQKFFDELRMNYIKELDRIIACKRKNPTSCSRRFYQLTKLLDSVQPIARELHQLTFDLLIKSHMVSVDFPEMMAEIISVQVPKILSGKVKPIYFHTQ
Assay [4] deals with T2, F876L mutant Androgen Receptor (AR-F876L). In words: LNCaP-AR-F876L AG reporter assay (agonist mode). Conditions: for EC50 / LNCaP-AR-F876L AG pEC50: pEC50 = −Log10(EC50 in Molar); for EC50: read-out: LNCaP-AR-F876L AG pEC50 (converted); for Emax: read-out: LNCaP-AR-F876L AG MAX % Stim. The assay is classed as cell-based.
In assay [5] the test system is rGABA-gated Cl− channel. In words: GABA-Gated Cl Channel Antagonist Radioligand Binding Assay. More on the design: species or system rat. The note with it: 10 μM single point, [35S]-TBPS, cerebral cortex membrane homogenates. In a few lines:
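Values give percent inhibition of control specific […] (3 nM) binding at a single 10 μM compound concentration. Cerebral cortex membranes, 120 min, 22° C, phosphate buffer pH 7.4 with 500 mM NaCl; 20 μM picrotoxinin sets nonspecific binding; filtration and scintillation read-out.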

Setting [6] is: antagonist mode, pIC50 = −Log10(IC50 in Molar).
Setting [7] is: maximum % inhibition of R1881 control response over the tested concentration range.
[8] abbreviates: maximum % stimulation (agonist response) over the tested concentration range.
Where [9] appears, read: antagonist mode, maximum % inhibition of R1881 control response over tested concentration range.
The mark [10] stands for this setting: agonist mode, maximum % stimulation over tested concentration range.

The structures appear in SMILES notation. Bounds are passed on as bounds.

T1 sequence (P10275 whole entry): as the sequence (P10275 whole entry F877L) above, with L877F counted along it

As for `N#Cc1ncc(N2C(=O)C3(CCC3)N(c3ccc(OC4CCN(CCF)CC4)nc3)C2=S)cc1C(F)(F)F` [Cpd 67, 5-[8-[6-[[1-(2-fluoroethyl)-4-piperidyl]oxy]-3-pyridyl]-5-oxo-7-thioxo-6,8-diazaspiro[3.4]octan-6-yl]-3-(trifluoromethyl)pyridine-2-carbonitrile], the results for the IC50 in assay [1] (setting [6]) and in assay [3] (antagonist mode) were 0.0427 µM and 0.0468 µM, respectively. For the same molecule, the Emax amounted to 99.6% in assay [1] (setting [7]), 0.4% in assay [2] (setting [8]), 97.4% in assay [3] (setting [7]) and 0.7% in assay [4] (setting [8]). The EC50 in assay [2] (agonist mode) and in assay [4] (agonist mode) was above 15.1 µM throughout. Further, the “rGABA-gated Cl− channel % inh @10 μM” value in assay [5] is 53.4%.
On to `CN1CCC(Sc2ccc(N3C(=S)N(c4cnc(C#N)c(C(F)(F)F)c4)C(=O)C34CCC4)cc2)CC1` [Cpd 242, 5-[8-[4-[(1-methyl-4-piperidyl)sulfanyl]phenyl]-5-oxo-7-thioxo-6,8-diazaspiro[3.4]octan-6-yl]-3-(trifluoromethyl)pyridine-2-carbonitrile], for which the Emax is 99.9% in assay [1] (setting [9]), 0.1% in assay [2] (setting [10]), 104% in assay [3] (setting [9]) and -0.1% in assay [4] (setting [10]). The IC50 in assay [1] (setting [6]) is 0.562 µM; in assay [3] (antagonist mode) it was 0.245 µM. Further, the EC50 in assay [2] (agonist mode) and in assay [4] (agonist mode) was above 15.1 µM throughout. The “rGABA-gated Cl− channel % inh @10 μM” value in assay [5] is 60.2%.
On to `CN1CC[C@H](Oc2ccc(N3C(=S)N(c4cnc(C#N)c(C(F)(F)F)c4)C(=O)C34CCC4)cc2)[C@H](F)C1` (racemic) [Cpd 102], for which the IC50 in assay [1] (setting [6]) was 0.0794 µM; in assay [3] (antagonist mode), 0.049 µM. For the same molecule, the Emax in assay [1] (setting [7]) came to 99.7%; in assay [2] (setting [8]), 0.4%; in assay [3] (setting [7]) it was 99.6%; in assay [4] (setting [8]) it was 0.3%. The EC50 in assay [2] (agonist mode) and in assay [4] (agonist mode) was above 15.1 µM throughout. Also, the “rGABA-gated Cl− channel % inh @10 μM” value in assay [5] worked out at 52.1%.
Consider `N#Cc1ncc(N2C(=O)C3(CCC3)N(c3ccc(OCCN4CC5(COC5)C4)cc3)C2=S)cc1C(F)(F)F` [Cpd 105, 5-[8-[4-[2-(6-oxa-2-azaspiro[3.3]heptan-2-yl)ethoxy]phenyl]-5-oxo-7-thioxo-6,8-diazaspiro[3.4]octan-6-yl]-3-(trifluoromethyl)pyridine-2-carbonitrile], for which the IC50 in assay [1] (setting [6]) is 0.123 µM; in assay [3] (antagonist mode), 0.0661 µM. In addition, the Emax in assay [1] (setting [7]) was 100%; in assay [2] (setting [8]) it was 0.1%; in assay [3] (setting [7]) it was 97.6%; in assay [4] (setting [8]), 0.8%. The EC50 in assay [2] (agonist mode) and in assay [4] (agonist mode) was above 15.1 µM each time. Further, the “rGABA-gated Cl− channel % inh @10 μM” value in assay [5] was 23.9%.
Consider `N#Cc1ncc(N2C(=O)C3(CCC3)N(c3ccc(OC4CCC(N)CC4)cc3)C2=S)cc1C(F)(F)F` (stereo not drawn) [Cpd 68, 5-[8-[4-(4-aminocyclohexoxy)phenyl]-5-oxo-7-thioxo-6,8-diazaspiro[3.4]octan-6-yl]-3-(trifluoromethyl)pyridine-2-carbonitrile], for which the IC50 was 0.0398 µM in assay [1] (setting [6]) and 0.0174 µM in assay [3] (antagonist mode). The Emax in assay [1] (setting [7]) is 101%; in assay [2] (setting [8]) it was 0.6%; in assay [3] (setting [7]), 99.7%; in assay [4] (setting [8]), 0.4%. For the same molecule, the EC50 in assay [2] (agonist mode) and in assay [4] (agonist mode) was above 15.1 µM in each case. For the same molecule, the “rGABA-gated Cl− channel % inh @10 μM” value in assay [5] is reported as 34.9%.
On to `N#Cc1ncc(N2C(=O)C3(CCC3)N(c3ccc(OC4CCCNCC4)cc3)C2=S)cc1C(F)(F)F` (stereo not drawn) [Cpd 30, 5-[8-[4-(azepan-4-yloxy)phenyl]-5-oxo-7-thioxo-6,8-diazaspiro[3.4]octan-6-yl]-3-(trifluoromethyl)pyridine-2-carbonitrile], for which the results for the IC50 in assay [1] (setting [6]) and in assay [3] (antagonist mode) were 0.708 µM and 0.0912 µM, respectively. Besides, in assay [1] (setting [7]), the “LNCaP-AR-wt ANT MAX % Inh” value is reported as 99.7%. Besides, in assay [2] (agonist mode), the “LNCaP-AR-wt AG pEC50” value was below 4.82. Further, in assay [2] (setting [8]), the “LNCaP-AR-wt AG MAX % Stim” value is given as 0.3%. Besides, the “LNCaP-AR-F876L ANT MAX % Inh” value in assay [3] (setting [7]) is listed as 100.6%. For the same molecule, the “LNCaP-AR-F876L AG pEC50” value in assay [4] (agonist mode) is on record as below 4.82. Moreover, the “LNCaP-AR-F876L AG MAX % Stim” value in assay [4] (setting [8]) came out at 0.3%. In addition, the “rGABA-gated Cl− channel % inh @10 μM” value in assay [5] is recorded as 53.6%.
Take `Cc1cc(N2C(=O)C3(CCC3)N(c3ccc(OC4CCN(CCF)CC4)nc3)C2=S)cnc1C#N` [Cpd 78, 5-[8-[6-[[1-(2-fluoroethyl)-4-piperidyl]oxy]-3-pyridyl]-5-oxo-7-thioxo-6,8-diazaspiro[3.4]octan-6-yl]-3-methyl-pyridine-2-carbonitrile]: the IC50 was 0.0933 µM in assay [1] (setting [6]) and 0.0229 µM in assay [3] (antagonist mode). Further, the Emax in assay [1] (setting [7]) is 101%; in assay [2] (setting [8]) it was 1.2%; in assay [3] (setting [7]), 100%; in assay [4] (setting [8]), 0%. Also, the EC50 in assay [2] (agonist mode) and in assay [4] (agonist mode) was above 15.1 µM each time. Moreover, the “rGABA-gated Cl− channel % inh @10 μM” value in assay [5] was 3.8%.
With `N#Cc1ncc(N2C(=O)C3(CCC3)N(c3ccc(OC4CCN(CC(F)(F)F)CC4)cc3)C2=S)cc1C(F)(F)F` [Cpd 40, 5-[5-oxo-7-thioxo-8-[4-[[1-(2,2,2-trifluoroethyl)-4-piperidyl]oxy]phenyl]-6,8-diazaspiro[3.4]octan-6-yl]-3-(trifluoromethyl)pyridine-2-carbonitrile], the IC50 is 0.537 µM in assay [1] (setting [6]) and 1 µM in assay [3] (antagonist mode). Further, the Emax in assay [1] (setting [7]) came out at 97.6%; in assay [2] (setting [8]), 0.2%; in assay [3] (setting [7]) it was 96%; in assay [4] (setting [8]) it was 1.5%. Besides, the EC50 in assay [2] (agonist mode) and in assay [4] (agonist mode) was above 15.1 µM each time. Further, in assay [5], the “rGABA-gated Cl− channel % inh @10 μM” value is listed as 67.5%.
On to `Cc1cc(N2C(=O)C3(CCC3)N(c3ccc(OC4CCN(CCO)CC4)nc3)C2=S)cnc1C#N` [Cpd 100, 5-[8-[6-[[1-(2-hydroxyethyl)-4-piperidyl]oxy]-3-pyridyl]-5-oxo-7-thioxo-6,8-diazaspiro[3.4]octan-6-yl]-3-methyl-pyridine-2-carbonitrile], for which the IC50 was 0.162 µM in assay [1] (setting [6]) and 0.0589 µM in assay [3] (antagonist mode). The Emax in assay [1] (setting [7]) turned out to be 100%; in assay [2] (setting [8]), 0.1%; in assay [3] (setting [7]), 98.9%; in assay [4] (setting [8]) it was 0.5%. Moreover, the EC50 in assay [2] (agonist mode) and in assay [4] (agonist mode) was above 15.1 µM throughout. Moreover, the “rGABA-gated Cl− channel % inh @10 μM” value in assay [5] stood at 2.3%.
On to `CN1[C@@H]2CC[C@H]1C[C@H](Oc1ccc(N3C(=S)N(c4cnc(C#N)c(C(F)(F)F)c4)C(=O)C34CCC4)cc1)C2` [Cpd 52, 5-[8-[4-[[(1R,3s,5S)-8-methyl-8-azabicyclo[3.2.1]octan-3-yl]oxy]phenyl]-5-oxo-7-thioxo-6,8-diazaspiro[3.4]octan-6-yl]-3-(trifluoromethyl)pyridine-2-carbonitrile], for which the “LNCaP-AR-wt ANT pIC50” value in assay [1] (setting [6]) came out at 6.76. Further, the Emax in assay [1] (setting [7]) stood at 98.3%; in assay [2] (setting [8]), 2.8%; in assay [3] (setting [7]), 98.9%; in assay [4] (setting [8]), 0.8%. Also, the “LNCaP-AR-wt AG pEC50” value in assay [2] (agonist mode) is on record as below 4.82. Moreover, in assay [3] (antagonist mode), the IC50 was 0.0437 µM. Moreover, the “LNCaP-AR-F876L AG pEC50” value in assay [4] (agonist mode) is below 4.82. Further, the “rGABA-gated Cl− channel % inh @10 μM” value in assay [5] is 13.1%.
As to `COc1cc(N2C(=O)C3(CCC3)N(c3ccc(OC4CCNCC4)nc3)C2=S)cnc1C#N` [Cpd 75, 3-methoxy-5-[5-oxo-8-[6-(4-piperidyloxy)-3-pyridyl]-7-thioxo-6,8-diazaspiro[3.4]octan-6-yl]pyridine-2-carbonitrile], the values for the IC50 in assay [1] (setting [6]) and in assay [3] (antagonist mode) were 0.148 µM and 0.0891 µM, respectively. The Emax in assay [1] (setting [7]) came to 102%; in assay [2] (setting [8]), 0.2%; in assay [3] (setting [7]), 101%; in assay [4] (setting [8]), 0.1%. The EC50 in assay [2] (agonist mode) and in assay [4] (agonist mode) was above 15.1 µM each time. For the same molecule, the “rGABA-gated Cl− channel % inh @10 μM” value in assay [5] is recorded as −32.5%.
As for `CN1CCC(n2ncc3cc(N4C(=S)N(c5cnc(C#N)c(Cl)c5)C(=O)C45CCC5)ccc32)CC1` [Cpd 183, 3-chloro-5-[8-[1-(1-methyl-4-piperidyl)indazol-5-yl]-5-oxo-7-thioxo-6,8-diazaspiro[3.4]octan-6-yl]pyridine-2-carbonitrile], the IC50 was 0.513 µM in assay [1] (setting [6]) and 0.275 µM in assay [3] (antagonist mode). For the same molecule, the Emax was 100% in assay [1] (setting [7]), 0.3% in assay [2] (setting [8]), 101% in assay [3] (setting [7]) and -0.1% in assay [4] (setting [8]). The EC50 in assay [2] (agonist mode) and in assay [4] (agonist mode) was above 15.1 µM each time. The “rGABA-gated Cl− channel % inh @10 μM” value in assay [5] amounted to 37.9%.
